Data from patent publication US8853273B2, “Medicinal agent for prevention and/or treatment of hepatocellular carcinoma” (Kowa Co., Ltd., priority 2010, dated 2014).

Key:
liver cancer cells = settings: cited from earlier work
[1] = tested on: recurrence of hepatocellular carcinoma; experiment: Clinical test of recurrence of hepatocellular carcinoma after radical treatment in HCV-positive subjects (dynamic CT every 12 weeks, log-rank test); assay type: in vivo, human; settings: for 50% Recurrence free interval / 75% Recurrence free interval: peroral, 96 weeks, in combination with branched-chain amino acid preparation
Procedure: Peretinoin produced through a known method was used as an acyclic retinoid. A commercial preparation containing isoleucine, leucine, and valine in combination was used as a branched-chain amino acid.
Forty-six subjects (age: 49 to 80) were tested. […] As a preparation containing a branched-chain amino acid, Aminoleban (registered trademark) EN combination powder or Livact (registered trademark) combination granules were administered in a specific amount during the test period. The daily dose of Aminoleban was 150 g (the daily dose including L-isoleucine (5.7675 g), L-leucine (6.111 g), and L-valine (4.806 g)), and that of Livact was 12.45 g (the daily dose including L-isoleucine (2.856 g), L-leucine (5.712 g), and L-valine (3.432 g)). As an acyclic retinoid, peretionin, was administered to the subjects in combination with the branched-chain amino acid. The subjects were divided into the following groups:
1: peretinoin 600 mg (daily dose, the same applies hereinafter) combination group: 18 subjects (male: 11, female: 7),
2: peretinoin 300 mg combination group: 15 subjects (male: 9, female: 6), and
3: branched-chain amino acid sole administration group: 13 subjects (male: 8, female: 5).
The daily dose of peretinoin was divided into two portions. On each day during 96 weeks after start of the test, peretinoin was perorally administered after meal.
Radical curing and recurrence of hepatocellular carcinoma were confirmed through dynamic CT measured every 12 weeks after the start of the test. The combinatory effect on cumulative recurrence free rate was evaluated through the log-rank test.

[2] = tested on: recurrence of hepatocellular carcinoma; settings: clinical study, cited from earlier work
[3] = peretinoin 300 mg daily, 15 HCV-positive subjects
[4] = peretinoin 600 mg daily, 18 HCV-positive subjects

CC(C)=CCC/C(C)=C/CC/C(C)=C/CC/C(C)=C/C(=O)O [geranylgeranoic acid]
apoptosis of liver cancer cells (liver cancer cells): induce apoptosis

CC(C)=CCC/C(C)=C/CC/C(C)=C/C=C/C(C)=C/C(=O)O [peretinoin, (2E,4E,6E,10E)-3,7,11,15-tetramethylhexadeca-2,4,6,10,14-pentaenoic acid]
50% Recurrence free interval [1, 3]: >730 days | 75% Recurrence free interval [1, 3]: 415 days | extension of 75% recurrence free interval compared with the sole branched-chain amino acid administration group ([1]; peretinoin 300 mg in combination with branched-chain amino acid): 227 days | cumulative recurrence free rate (FIG. 1) ([1]; peretinoin 600 mg and 300 mg combination groups with branched-chain amino acid): remarkable improvement | cumulative recurrence free rate compared with the sole branched-chain amino acid administration group ([1]; peretinoin 600 mg combination group, Log-rank test): significantly improved | 50% Recurrence free interval [1, 4]: >730 days | 75% Recurrence free interval [1, 4]: 705 days | extension of 75% recurrence free interval compared with the sole branched-chain amino acid administration group ([1]; peretinoin 600 mg in combination with branched-chain amino acid): 517 days | extension of 50% recurrence free interval compared with the sole branched-chain amino acid administration group ([1]; peretinoin and branched-chain amino acid combination groups (600 mg and 300 mg)): more than double | hepatocellular carcinoma recurrence rate ([1]; peretinoin in combination with branched-chain amino acid): reduce | liver disorders / adverse side effects [2]: substantially no liver disorders | recurrence of hepatocellular carcinoma after radical treatment ([2]; long-term administration for one year): significantly inhibited
